Experimental data reported in patent publication US9302999B2, “Substituted triazoles as herbicides” (E. I. DU PONT DE NEMOURS AND COMPANY, priority 2012, dated 2016).

Key:
Type in all cases: in vivo
[1] = test system: surinam grass (Brachiaria decumbens); assay: Test F pre-/postemergence: surinam grass; conditions: Preemergence
Source text: (§1) Seeds of plant species selected from corn (Zea mays), soybean (Glycine max), velvetleaf (Abutilon theophrasti), lambsquarters (Chenopodium album), poinsettia, wild (wild poinsettia, Euphorbia heterophylla), pigweed, palmer (palmer pigweed, Amaranthus palmeri), waterhemp (common waterhemp, Amaranthus rudis), surinam grass (Brachiaria decumbens), crabgrass, Brazil (Brazilian crabgrass, Digitaria horizontalis), panicum, fall (fall panicum Panicum dichotomiflorum), crabgrass, large (large crabgrass, Digitaria sanguinalis), foxtail, giant (giant foxtail, Setaria faberii), foxtail, green (green foxtail Setaria viridis), goosegrass (Eleusine indica), ragweed (common ragweed, Ambrosia elatior), barnyardgrass (Echinochloa crus-galli), sandbur (southern sandbur, Cenchrus echinatus), arrowleaf sida (Sida rhombifolia), ryegrass, Italian (Italian ryegrass, Lolium multiflorum), dayflower, VA (Virginia (VA) dayflower, Commelina virginica), field bindweed (Convolvulus arvensis), cocklebur (common cocklebur, Xanthium strumarium), morningglory (Ipomoea coccinea), nightshade (eastern black nightshade, Solanum ptycanthum), kochia (Kochia scoparia), nutsedge, yellow (yellow nutsedge, Cyperus esculentus), johnsongrass (Sorghum halepense), smartweed (ladysthumb smartweed, Polygonum persicaria), and beggarticks (hairy beggarticks, Bidens pilosa), were planted into a silt loam soil and treated preemergence with test chemicals formulated in a non-phytotoxic solvent mixture which included a surfactant. At the same time, plants selected from these crop and weed species and also pigweed (Amaranthus retroflexus), waterhemp_RES1 (ALS/Triazine resistant common waterhemp, Amaranthus rudis) and waterhemp_RES2 (ALS/HPPD resistant common waterhemp, Amaranthus rudis) were planted in pots containing a planting medium comprising spaghnum peat moss, vermiculite, wetting agent and starter nutrients treated with postemergence applications of some of the test chemicals formulated in the same manner. Plants ranged in height from 2 to 18 cm for postemergence treatments (1- to 4-leaf stage).
(§2) Treated plants and controls were maintained in a greenhouse for 14 to 21 days, after which time all species were compared to controls and visually evaluated. Plant response ratings, summarized in Table E, are based on a scale of 0 to 100 where 0 is no effect and 100 is complete control. A dash (-) response means no test result.

[2] = test system: panicum, fall (fall panicum Panicum dichotomiflorum); assay: Test F pre-/postemergence: panicum, fall
Source text: as §1, §2

[3] = test system: sandbur (southern sandbur, Cenchrus echinatus); assay: Test F pre-/postemergence: sandbur
Source text: as §1, §2

[4] = 16 g ai/ha, scale 0 to 100, 0 no effect, 100 complete control
[5] = 31 g ai/ha, scale 0 to 100, 0 no effect, 100 complete control
[6] = Preemergence, 16 g ai/ha, scale 0 to 100, 0 no effect, 100 complete control
[7] = Preemergence, 31 g ai/ha, scale 0 to 100, 0 no effect, 100 complete control
[8] = Preemergence, 125 g ai/ha, scale 0 to 100
[9] = Preemergence, 250 g ai/ha, scale 0 to 100
[10] = Postemergence, 8 g ai/ha, scale 0 to 100
[11] = Postemergence, 16 g ai/ha, scale 0 to 100
[12] = Postemergence, 31 g ai/ha, scale 0 to 100
[13] = Postemergence, 62 g ai/ha, scale 0 to 100
[14] = Postemergence, 125 g ai/ha, scale 0 to 100
[15] = Postemergence, 250 g ai/ha, scale 0 to 100

SMILES	Plant response rating, Surinam Grass [1, 4]	Plant response rating, Surinam Grass [1, 5]	Plant response rating, Surinam Grass ([1]; 125 g ai/ha, scale 0 to 100)	Plant response rating, Surinam Grass ([1]; 250 g ai/ha, scale 0 to 100)	Plant response rating, Panicum, Fall [2, 6]	Plant response rating, Panicum, Fall [2, 7]	Plant response rating, Panicum, Fall [2, 8]	Plant response rating, Panicum, Fall [2, 9]	Plant response rating, Sandbur [3, 6]	Plant response rating, Sandbur [3, 7]	Plant response rating, Sandbur [3, 8]	Plant response rating, Sandbur [3, 9]	Plant response rating, Panicum, Fall [2, 11]	Plant response rating, Panicum, Fall [2, 12]	Plant response rating, Panicum, Fall [2, 13]	Plant response rating, Panicum, Fall [2, 14]	Plant response rating, Sandbur [3, 11]	Plant response rating, Sandbur [3, 12]	Plant response rating, Sandbur [3, 13]	Plant response rating, Sandbur [3, 14]	other results
COc1nn(-c2cccc(F)c2)nc1Cc1ccnc(C(F)(F)F)c1 [Compound 139]	0	0	75	75	0	25	100	100	0	5	35	40	–	–	–	–	–	–	–	–	–
Cc1nn(-c2ccnc(Cl)c2)nc1Cc1ccnc(C(F)(F)F)c1 [Compound 141]	–	–	–	–	–	–	–	–	–	–	–	–	50	50	60	75	10	20	30	35	Plant response rating, Panicum, Fall [2, 10]: 30; Plant response rating, Sandbur [3, 10]: 10
Cc1nn(-c2ccc(F)cc2F)nc1Oc1ccnc(C(F)(F)F)c1 [Compound 146]	0	0	20	35	0	5	100	100	0	0	25	70	–	–	–	–	–	–	–	–	–
CCc1nn(-c2ccc(C(F)(F)F)cc2)nc1Oc1ccnc(C(F)(F)F)c1 [Compound 169]	0	65	75	100	65	100	100	100	0	20	65	75	10	15	20	25	15	15	20	20	Plant response rating, Panicum, Fall [2, 15]: 30; Plant response rating, Sandbur [3, 15]: 25
CCc1nn(-c2ccc(F)c(F)c2)nc1Oc1ccnc(C(F)(F)F)c1 [Compound 171]	0	0	10	30	0	65	100	100	0	5	50	50	–	–	–	–	–	–	–	–	–
CCCc1nn(-c2ccc(F)c(F)c2)nc1Oc1ccnc(C(F)(F)F)c1 [Compound 172]	–	20	35	98	–	75	100	100	–	5	70	100	–	20	–	50	–	20	–	30	Plant response rating, Panicum, Fall [2, 15]: 50; Plant response rating, Sandbur [3, 15]: 40
